The target in assay [1] is ligand binding domain of human FXR (Homo sapiens (Human), UniProt Q96RI1). Put plainly: FXR ligand binding assay (LanthaScreen TR-FRET, SRC2-2 peptide recruitment). Particulars: for pEC50: -log EC50, concentration required to produce 50% activation; for Emax: read-out: % Efficacy. For orientation: TR-FRET usually uses a lanthanide donor and a delayed reading to cut background.

The target of assay [2] is human Farnesoid X receptor ligand-binding domain/Gal4 DNA binding domain chimera (Homo sapiens (Human), UniProt Q96RI1). The experiment in a line: Cell-based assay of FXR activation (FXR-UAS-bla HEK 293T beta-lactamase reporter). Particulars: cellular FXR beta-lactamase reporter assay; for Emax: HEK-293T, extent of activation relative to GW4064, read-out: % Efficacy; for EC50: FXR-UAS-bla HEK 293T cells, 16 h, pEC50 = -log EC50. How it is done: FXR activation was measured using a cell line and procedure obtained from Life Technologies (Cat # K1691). FXR-UAS-bla HEK 293T cells contain a human Farnesoid X receptor ligand-binding domain/Gal4 DNA binding domain chimera stably integrated into the CellSensor® UAS-bla HEK 293T cell line. The CellSensor® UAS-bla HEK 293T contains a beta-lactamase reporter gene under control of a UAS response element stably integrated into HEK 293T cells. Activation of FXR by bound ligands results in transcriptional activation of the beta-lactamase reporter gene, which is detected via assay of beta-lactamase activity.
Cells are harvested and diluted into assay medium containing phenol red-free DMEM supplemented with 2% Charcoal-stripped FBS, pyruvate, non-essential amino acids. Cells are then transferred to a 384 well assay plate. Test compounds are dissolved in DMSO and a 3-fold serial dilution series is generated, then further diluted into assay medium. Compounds in assay medium are added to cells in the 384 well plate and allowed to incubate 16 h at 37 C in the presence of 5% CO2.
A FRET-based […] is loaded into cells as its acetomethoxy ester. Intracellular esterases liberate free CCF4, a cephalosporin core linking 7-hydroxycoumarin to fluorescein. In the presence of beta-lactamase activity produced in the presence of FXR agonists, cleavage of CCF4 spatially separates the two dyes and disrupts FRET, so that exciting the coumarin at 409 nm now produces a blue fluorescence signal at 447 nm. The change in FRET signal is plotted against the test compound concentration and fit to a 3-parameter logistical equation. The concentration required to produce 50% activation is expressed as pEC50 (−log EC50), and the extent of activation is expressed relative to GW4064 as % activation.
In general terms: A reporter such as luciferase makes a cellular process visible.

The mark [3] stands for this setting: extent of activation relative to GW4064.

Like-named read-outs stand apart in the source and are kept apart here.

Sequence of human Farnesoid X receptor ligand-binding domain/Gal4 DNA binding domain chimera (Q96RI1 262-486, stated change not applied): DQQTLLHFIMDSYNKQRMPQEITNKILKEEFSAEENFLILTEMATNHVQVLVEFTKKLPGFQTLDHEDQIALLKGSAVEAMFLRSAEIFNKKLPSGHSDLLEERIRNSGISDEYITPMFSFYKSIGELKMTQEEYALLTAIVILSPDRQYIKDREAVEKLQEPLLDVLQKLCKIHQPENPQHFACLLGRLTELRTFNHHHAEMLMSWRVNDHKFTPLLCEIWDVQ
Sequence of human Farnesoid X receptor ligand-binding domain/Gal4 DNA binding domain chimera (P04386 1-147 partner): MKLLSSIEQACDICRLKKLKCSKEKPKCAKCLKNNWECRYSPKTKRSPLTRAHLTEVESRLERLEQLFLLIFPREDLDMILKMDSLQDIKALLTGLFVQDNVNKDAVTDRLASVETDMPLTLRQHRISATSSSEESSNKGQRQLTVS
Sequence of ligand binding domain of human FXR (Q96RI1 262-486): as the sequence (Q96RI1 262-486, stated change not applied) above

Regarding `CC(=O)OC(C)CCS(=O)(=O)NC(=O)c1ccc(N2C[C@@H]3C[C@H]2C[C@H]3OCc2c(-c3c(Cl)cccc3Cl)noc2C2CC2)cc1` (stereo partly drawn) [Compound I-216, 4-[({4-[(1S,4S,5R)-5-{[5-cyclopropyl-3-(2,6-dichlorophenyl)-1,2-oxazol-4-yl]methoxy}-2-azabicyclo[2.2.1]heptan-2-yl]phenyl}formamido)sulfonyl]butan-2-yl Acetate], in assay [1], the pEC50 is 9.4 and the Emax is 145%. In addition, in assay [2], the Emax came to 112% and a half-maximal response (EC50) required 0.398 nM.

Turning to `N#Cc1cc(CCC(=O)O)ccc1N1C[C@@H]2C[C@H]1C[C@H]2OCc1c(-c2c(Cl)cccc2Cl)noc1C1CC1` [Compound I-158, 3-{3-cyano-4-[(1S,4S,5R)-5-{[5-cyclopropyl-3-(2,6-dichlorophenyl)-1,2-oxazol-4-yl]methoxy}-2-azabicyclo[2.2.1]heptan-2-yl]phenyl}propanoic Acid], the negative logarithm of the EC50 (pEC50) in assay [1] is reported as 7.6. The Emax in assay [1] (setting [3]) was 126%. Besides, in assay [2], the Emax is 104% and the EC50 was 6.31 nM.

Take `Cc1cc(N2C[C@@H]3C[C@H]2C[C@H]3OCc2c(-c3c(Cl)cccc3Cl)noc2C2CC2)ccc1C(=O)O` [Compound I-111, 4-((1S,4S,5R)-5-((5-cyclopropyl-3-(2,6-dichlorophenyl)isoxazol-4-yl)methoxy)-2-azabicyclo[2.2.1]heptan-2-yl)-2-methylbenzoic acid]: the pEC50 in assay [1] turned out to be 9.3. The Emax in assay [1] (setting [3]) came to 132%. In assay [2], the Emax was 100% and the midpoint of the response, the EC50, lay at 1.26 nM.

`O=C(O)c1ccc(N2C[C@@H]3C[C@H]2C[C@H]3OCc2c(-c3ccccc3C(F)(F)F)noc2C2CC2)cc1` [Compound I-120, 4-[(1S,4S,5R)-5-({5-cyclopropyl-3-[2-(trifluoromethyl)phenyl]-1,2-oxazol-4-yl}methoxy)-2-azabicyclo[2.2.1]heptan-2-yl]benzoic Acid] registered a pEC50 in assay [1] of 8. In addition, in assay [1] (setting [3]), the Emax came to 188%. Moreover, in assay [2], the Emax turned out to be 112% and the midpoint of the response, the EC50, lay at 2 nM.

Regarding `O=C(O)CCc1ccc(N2C[C@@H]3C[C@H]2C[C@H]3OCc2c(-c3c(Cl)cccc3Cl)noc2C2CC2)cc1` [Compound I-147, 3-{4-[(1S,4S,5R)-5-{[5-cyclopropyl-3-(2,6-dichlorophenyl)-1,2-oxazol-4-yl]methoxy}-2-azabicyclo[2.2.1]heptan-2-yl]phenyl}propanoic Acid], in assay [1], the negative-log EC50 (pEC50) is reported as 8.1 and the Emax is 142%. Besides, in assay [2], the Emax is 112% and a half-maximal response (EC50) required 0.631 nM.

`O=C(O)c1cc(C2CCC2)c2nc(N3C[C@@H]4C[C@H]3C[C@H]4OCc3c(-c4c(Cl)cccc4Cl)noc3C3CC3)sc2c1` [Compound I-249, 4-cyclobutyl-2-[(1S,4S,5R)-5-{[5-cyclopropyl-3-(2,6-dichlorophenyl)-1,2-oxazol-4-yl]methoxy}-2-azabicyclo[2.2.1]heptan-2-yl]-1,3-benzothiazole-6-carboxylic Acid] returned a pEC50 in assay [1] of 8.4. Further, the Emax in assay [1] (setting [3]) came out at 134%. Also, in assay [2], the Emax was 114% and the EC50 was 0.158 nM.

As to `O=C(NS(=O)(=O)C1CC1)c1ccc([N+]2([O-])C[C@@H]3C[C@H]2C[C@H]3OCc2c(-c3c(Cl)cccc3Cl)noc2C2CC2)cc1` (stereo partly drawn) [Compound I-234, (1S,4S,5R)-2-{4-[(cyclopropanesulfonyl)carbamoyl]phenyl}-5-{[5-cyclopropyl-3-(2,6-dichlorophenyl)-1,2-oxazol-4-yl]methoxy}-2-azabicyclo[2.2.1]heptan-2-ium-2-olate], the pEC50 in assay [1] was determined as 8.1. For the same molecule, in assay [1] (setting [3]), the Emax is 146%. In addition, in assay [2], the Emax was 102% and the EC50 is 1.58 nM.

On to `O=C(O)c1ccc(N2C[C@@H]3C[C@H]2C[C@H]3OCc2c(C3CCC4(CC3)CC4)noc2C2CC2)c(F)c1` [Compound I-126, 4-[(1S,4S,5R)-5-[(5-cyclopropyl-3-{spiro[2.5]octan-6-yl}-1,2-oxazol-4-yl)methoxy]-2-azabicyclo[2.2.1]heptan-2-yl]-3-fluorobenzoic Acid], for which the Emax in assay [1] was found to be 114%; in assay [2], 106%. The molecule also had an EC50 in assay [2] of 39.8 nM.

`O=C(O)c1cc(C2CCC2)c2nc(N3C[C@@H]4C[C@H]3C[C@H]4OCc3c(C4CCC5(CC4)CC5)noc3C3CC3)sc2c1` [Compound I-282, 4-cyclobutyl-2-((1S,4S,5R)-5-((5-cyclopropyl-3-(spiro[2.5]octan-6-yl)isoxazol-4-yl)methoxy)-2-azabicyclo[2.2.1]heptan-2-yl)benzo[d]thiazole-6-carboxylic acid]: the pEC50 in assay [1] is listed as 7.4. Moreover, the Emax in assay [1] (setting [3]) amounted to 100%. In addition, in assay [2], the Emax was 117% and a half-maximal effect (EC50) was put at 25.1 nM.

In the case of `O=C(NS(=O)(=O)C1CC1)c1cc(F)c2nc(N3C[C@@H]4C[C@H]3C[C@H]4OC(=O)c3c(-c4c(Cl)cccc4Cl)noc3C3CC3)sc2c1` [Compound I-33, (1S,4S,5R)-2-{6-[(cyclopropanesulfonyl)carbamoyl]-4-fluoro-1,3-benzothiazol-2-yl}-2-azabicyclo[2.2.1]heptan-5-yl 5-cyclopropyl-3-(2,6-dichlorophenyl)-1,2-oxazole-4-carboxylate], the pEC50 in assay [1] came to 7.6. In assay [1] (setting [3]), the Emax was 136%. Besides, in assay [2], the Emax was 112% and the concentration for a half-maximal effect (EC50) was 126 nM.

For `O=C(O)CNC(=O)c1ccc(N2C[C@@H]3C[C@H]2C[C@H]3OCc2c(-c3c(Cl)cccc3Cl)noc2C2CC2)cc1F` [Compound I-167, 2-({4-[(1S,4S,5R)-5-{[5-cyclopropyl-3-(2,6-dichlorophenyl)-1,2-oxazol-4-yl]methoxy}-2-azabicyclo[2.2.1]heptan-2-yl]-2-fluorophenyl}formamido)acetic Acid], in assay [1], the pEC50 amounted to 8.7. Further, the values for the Emax in assay [1] (setting [3]) and in assay [2] were 152% and 106%, respectively. Further, in assay [2], the 50% effective concentration (EC50) is 7.94 nM.

Consider `Cc1cc(C(=O)O)ccc1N1C(=O)[C@@H]2C[C@H]1C[C@H]2OCc1c(-c2c(Cl)cccc2Cl)noc1C1CC1` [Compound I-317, 4-[(1S,4R,5R)-5-{[5-cyclopropyl-3-(2,6-dichlorophenyl)-1,2-oxazol-4-yl]methoxy}-3-oxo-2-azabicyclo[2.2.1]heptan-2-yl]-3-methylbenzoic Acid], for which the pEC50 in assay [1] stood at 6.7. Further, the Emax came out at 131% in assay [1] (setting [3]) and 126% in assay [2]. Further, in assay [2], the EC50 is 100 nM.

With `O=C(O)c1ccc(N2C[C@@H]3C[C@H]2C[C@H]3OCc2c(-c3c(Cl)cccc3Cl)noc2C2CC2)cn1` [Compound I-128, 5-[(1S,4S,5R)-5-{[5-cyclopropyl-3-(2,6-dichlorophenyl)-1,2-oxazol-4-yl]methoxy}-2-azabicyclo[2.2.1]heptan-2-yl]pyridine-2-carboxylic Acid], the negative-log EC50 (pEC50) in assay [1] is reported as 7.8. The Emax in assay [1] (setting [3]) amounted to 110%. Besides, in assay [2], the Emax is 93% and a half-maximal response (EC50) required 10 nM.

Molecule `Cc1cccc(Cl)c1-c1noc(C2CC2)c1CO[C@@H]1C[C@@H]2C[C@H]1CN2c1ccc(CCC(=O)NS(=O)(=O)C2CC2)cc1F` [Compound I-242, 3-(4-((1S,4S,5R)-5-((3-(2-chloro-6-methylphenyl)-5-cyclopropylisoxazol-4-yl)methoxy)-2-azabicyclo[2.2.1]heptan-2-yl)-3-fluorophenyl)-N-(cyclopropylsulfonyl)propanamide] returned a pEC50 in assay [1] of 8.2. Besides, the Emax in assay [1] (setting [3]) came to 182%; in assay [2], 97%. Besides, the concentration for a half-maximal effect (EC50) in assay [2] was 10 nM.

In assay [1], `O=C(O)C1CN(Cc2ccc(N3C[C@@H]4C[C@H]3C[C@H]4OCc3c(-c4c(Cl)cccc4Cl)noc3C3CC3)cc2)C1` [Compound I-160, 1-({4-[(1S,4S,5R)-5-{[5-cyclopropyl-3-(2,6-dichlorophenyl)-1,2-oxazol-4-yl]methoxy}-2-azabicyclo[2.2.1]heptan-2-yl]phenyl}methyl)azetidine-3-carboxylic Acid] gave a pEC50 of 6.9. Moreover, the Emax in assay [1] (setting [3]) turned out to be 93%. In addition, in assay [2], the Emax turned out to be 110% and the EC50 was 1000 nM.

As to `NS(=O)(=O)[C@@H]1CCC[C@H]1OC(=O)c1ccc(N2C(=O)[C@@H]3C[C@H]2C[C@H]3OCc2c(-c3c(Cl)cccc3Cl)noc2C2CC2)cc1` [Compound I-345, (1R,2R)-2-sulfamoylcyclopentyl 4-[(1S,4R,5R)-5-{[5-cyclopropyl-3-(2,6-dichlorophenyl)-1,2-oxazol-4-yl]methoxy}-3-oxo-2-azabicyclo[2.2.1]heptan-2-yl]benzoate], the pEC50 in assay [1] was 8.6. Moreover, in assay [1] (setting [3]), the Emax is 203%. Further, in assay [2], the Emax is 121% and the EC50 is 3.98 nM.

Broadly, the pEC50 is −log10 of the EC50, conventionally taken in molar units. As usually defined, the EC50 is the concentration needed to bring the measured effect to its halfway point. A higher EC50 goes with a need for much substance.

Values taken from patent US10793568B2, “Hormone receptor modulators for treating metabolic conditions and disorders” (ARDELYX, INC., priority 2016, dated 2020).
